These are literature values, as cited in patent publication US20050203062A1, “Use of tagatose in laxatives” (Spherix Incorporated, priority 2002, published 2005).

Data set [1] concerns blood glucose.
Data set [2] relates to Type 2 diabetes. Conditions: clinical trials.
For data set [3] the following is noted: amounts approaching 30 or 40 grams per day.

As for `O=C(CO)[C@@H](O)[C@@H](O)[C@H](O)CO` [tagatose, D-tagatose], in data set [1] (after tagatose itself), the “rise in blood glucose” value is on record as “does not produce a rise in blood glucose”. Further, in data set [1] (subsequent intake of glucose-producing foods), the “rise in blood glucose from subsequent intake of glucose-producing foods” value is “blunts the rise in blood glucose”. Further, in data set [2], the “treatment of Type 2 diabetes” value is “effective treatment for Type 2 diabetes”. Also, the laxation effect result in data set [3] is reported as “known to have a Taxation effect”.
